Reference: ChEMBL document CHEMBL1255418, “Occurrence of ST23 complex phylogroup A Escherichia coli isolates producing extended-spectrum AmpC beta-lactamase in a French hospital” (2010)
≈ marks a conversion by molar mass, not a printed value.

Key:
Assay type in all cases: functional
Escherichia coli [1] = experiment: Antimicrobial activity against Escherichia coli isolate 8009389 with AmpC beta-lactamase H296P mutation
Escherichia coli [2] = experiment: Antimicrobial activity against Escherichia coli isolate 7008710 with AmpC beta-lactamase S287N mutation
Escherichia coli [3] = experiment: Antimicrobial activity against Escherichia coli isolate 7014517 AmpC with LAA insertion at position 295
Escherichia coli [4] = experiment: Antimicrobial activity against Escherichia coli isolate 7008211 with AmpC beta-lactamase H296P mutation
Escherichia coli [5] = experiment: Antimicrobial activity against AmpC producing Escherichia coli Top10 isolate 7014517
Escherichia coli [6] = experiment: Antimicrobial activity against Escherichia coli isolate 7014517 with AmpC beta-lactamase 295 Ins LAA mutation
Escherichia coli [7] = experiment: Antimicrobial activity against Escherichia coli isolate 8009162 with AmpC beta-lactamase A292V mutation
Escherichia coli [8] = experiment: Antimicrobial activity against Escherichia coli isolate 7008153 with AmpC beta-lactamase H296P mutation
Escherichia coli [9] = experiment: Antimicrobial activity against Escherichia coli isolate 8009162 AmpC with A292V mutation
Escherichia coli [10] = experiment: Antimicrobial activity against AmpC producing Escherichia coli Top10 isolate 25922
Escherichia coli [11] = experiment: Antimicrobial activity against Escherichia coli isolate 4009273 with AmpC beta-lactamase S287N mutation
Escherichia coli [12] = experiment: Antimicrobial activity against Escherichia coli isolate 5000869 with AmpC beta-lactamase H296P mutation
Escherichia coli [13] = experiment: Antimicrobial activity against wild-type AmpC producing Escherichia coli ATCC 25922
Escherichia coli [14] = experiment: Antimicrobial activity against Escherichia coli isolate 7001178 with AmpC beta-lactamase S287N mutation
Escherichia coli [15] = experiment: Antimicrobial activity against Escherichia coli isolate 7010738 with AmpC beta-lactamase H296P mutation
Escherichia coli [16] = experiment: Antimicrobial activity against Escherichia coli Top10
Escherichia coli [17] = experiment: Antimicrobial activity against AmpC producing Escherichia coli Top10 isolate 8009162
Escherichia coli [18] = experiment: Antimicrobial activity against Escherichia coli isolate 8009989 with AmpC beta-lactamase H296P mutation

Compound	MIC (Escherichia coli [1])	MIC (Escherichia coli [2])	MIC (Escherichia coli [3])	MIC (Escherichia coli [4])	MIC (Escherichia coli [5])	MIC (Escherichia coli [6])	MIC (Escherichia coli [7])	MIC (Escherichia coli [8])	MIC (Escherichia coli [9])	MIC (Escherichia coli [10])	MIC (Escherichia coli [11])	MIC (Escherichia coli [12])	MIC (Escherichia coli [13])	MIC (Escherichia coli [14])	MIC (Escherichia coli [15])	MIC (Escherichia coli [16])	MIC (Escherichia coli [17])	MIC (Escherichia coli [18])
CO/N=C(\C(=O)N[C@@H]1C(=O)N2C(C(=O)[O-])=C(C[N+]3(C)CCCC3)CS[C@H]12)c1csc(N)n1 [CEFEPIME]	16 µg/mL (≈ 33.3 µM)	8 µg/mL (≈ 16.6 µM)	8 µg/mL (≈ 16.6 µM)	16 µg/mL (≈ 33.3 µM)	4 µg/mL (≈ 8.32 µM)	8 µg/mL (≈ 16.6 µM)	0.75 µg/mL (≈ 1.56 µM)	16 µg/mL (≈ 33.3 µM)	0.75 µg/mL (≈ 1.56 µM)	0.06 µg/mL (≈ 0.125 µM)	4 µg/mL (≈ 8.32 µM)	4 µg/mL (≈ 8.32 µM)	< 0.06 µg/mL	2 µg/mL (≈ 4.16 µM)	8 µg/mL (≈ 16.6 µM)	< 0.06 µg/mL	0.75 µg/mL (≈ 1.56 µM)	8 µg/mL (≈ 16.6 µM)
CO/N=C(\C(=O)N[C@@H]1C(=O)N2C(C(=O)O)=C(COC(C)=O)CS[C@H]12)c1csc(N)n1 [CEFOTAXIME]	8 µg/mL (≈ 17.6 µM)	16 µg/mL (≈ 35.1 µM)	16 µg/mL (≈ 35.1 µM)	8 µg/mL (≈ 17.6 µM)	32 µg/mL (≈ 70.3 µM)	16 µg/mL (≈ 35.1 µM)	8 µg/mL (≈ 17.6 µM)	16 µg/mL (≈ 35.1 µM)	8 µg/mL (≈ 17.6 µM)	0.75 µg/mL (≈ 1.65 µM)	8 µg/mL (≈ 17.6 µM)	4 µg/mL (≈ 8.78 µM)	< 0.06 µg/mL	8 µg/mL (≈ 17.6 µM)	8 µg/mL (≈ 17.6 µM)	< 0.06 µg/mL	12 µg/mL (≈ 26.3 µM)	8 µg/mL (≈ 17.6 µM)
CC(C)(O/N=C(\C(=O)N[C@@H]1C(=O)N2C(C(=O)[O-])=C(C[n+]3ccccc3)CS[C@H]12)c1csc(N)n1)C(=O)O [CEFTAZIDIME]	≥ 64 µg/mL	≥ 64 µg/mL	64 µg/mL (≈ 117 µM)	≥ 64 µg/mL	> 256 µg/mL	≥ 64 µg/mL	≥ 64 µg/mL	≥ 64 µg/mL	64 µg/mL (≈ 117 µM)	4 µg/mL (≈ 7.32 µM)	≥ 64 µg/mL	≥ 64 µg/mL	0.09 µg/mL (≈ 0.165 µM)	≥ 64 µg/mL	≥ 64 µg/mL	< 0.06 µg/mL	> 256 µg/mL	≥ 64 µg/mL
